Reference: US20210353721A1, “METHODS AND COMPOSITIONS RELATING TO INHIBITING CARDIOVASCULAR CALCIFICATION VIA ANNEXIN A1” (THE BRIGHAM AND WOMEN'S HOSPITAL, INC., priority 2018, published 2021)
One block for each molecule: values may come before it.

Assays:
ANXA1 loading on EVs = ANXA1 loading on EVs derived from SMCs treated with mdivi-1 (western blot); assay type: cell-based; details: human SMCs in OM, 14 days
Protocol: Primary Cell Culture. Primary human coronary artery SMCs were obtained from Promocell (Heidelberg, Germany) and expanded in SMC Growth Medium 2 (Promocell) supplemented with epidermal growth factor (0.5 ng/mL), insulin (5 μg/mL) basic fibroblast growth factor- B (2 ng/mL), and 5% fetal bovine serum. Primary human VICs were obtained from human aortic valve tissue using collagenase digestion (28, 30). Tissue-derived SMCs were confirmed as alpha smooth muscle actin-positive by FACS (30). Tissue-derived VICs were confirmed as vimentin positive by immunohistochemistry (28). Cells were cultured at 37° C. (5% CO2, 90% humidity) and used between passages 1 and 5. […] Tissue non-specific alkaline phosphatase (TNAP) activity was analyzed after 14 days in culture using whole cell lysates and the TNAP enzyme activity assay (BioVision, Inc., Milpitas, Calif.), according to the manufacturer's protocol. Calcification was analyzed in cells after 21 days in culture by incubating culture wells with OsteoSense680 (1:100), near-infrared based bisphosphonate calcium tracer, for 24 hours at 37° C. […]
RNA and Protein Analysis. […] ANXA1 EVs surface localization was assessed by isolating human SMC and VIC EVs. […]

[1] = target: dynamin-related protein 1 (DRP1) (Homo sapiens, UniProt O00429); details: OM; cited from earlier work
[2] = target: ANXA1 on human SMC-derived EVs (Homo sapiens, UniProt P04083); details: 0.48 mmol/L EDTA in PBS, 30 minutes at 37° C.
[3] = target: ANXA1 on human VIC-derived EVs (Homo sapiens, UniProt P04083); details: 0.48 mmol/L EDTA in PBS, 30 minutes at 37° C.
human ANXA1 = target: T1, human ANXA1 (Homo sapiens, UniProt P04083); assay: Vesicle tethering assay (turbidity of extrusion generated phosphatidylserine vesicles); assay type: biochemical
T1 construct: purchased R&D Systems
T1 sequence (P04083 1-346): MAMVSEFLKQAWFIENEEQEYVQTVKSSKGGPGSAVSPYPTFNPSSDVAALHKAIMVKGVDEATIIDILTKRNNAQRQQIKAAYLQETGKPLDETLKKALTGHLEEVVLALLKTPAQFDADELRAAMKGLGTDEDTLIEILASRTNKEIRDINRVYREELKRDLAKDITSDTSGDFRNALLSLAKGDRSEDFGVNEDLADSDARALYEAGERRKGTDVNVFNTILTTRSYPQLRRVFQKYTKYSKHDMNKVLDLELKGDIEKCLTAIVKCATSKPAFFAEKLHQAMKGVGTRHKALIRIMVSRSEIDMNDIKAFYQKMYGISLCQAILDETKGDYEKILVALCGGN
Protocol: Vesicle Tethering Assay. Vesicle tethering was assessed by using a previously reported protocol (19) with modifications to adjust to a 96-well plate reader format. Large unilaminar vesicles of ˜100 nm in diameter were generated by filter extrusion. Briefly, 2.5 mg of phosphatidylserine (Avanti Polar Lipids) was solubilized in 1 mL of buffer containing: 10 mmol/L Hepes (Sigma, St. Louis, Mo.), 100 mmol/L NaCl (Sigma), 100 μmon ethylenediaminetetraacetic acid (Boston BioProducts, Ashland, Mass.), pH 6. The lipid mixture was run through an extruder containing 0.1 μm polycarbonate membranes (Avanti Polar Lipids) ten times, during which point the lipid mixture went from cloudy to clear in appearance. Vesicles were assessed for correct size and abundance prior to use by NanoSight nanoparticle tracking analysis. […] 27 jd of extrusion generated vesicles were added to each well and vesicle aggregation was measured at wavelength 350 on a SpectraMax M5 96-well plate reader (Molecular Devices, San Jose, Calif.). For calcium chelation, 0.48 mmol/L ethylenediaminetetraacetic acid was incubated with 1 μg human ANXA1 protein for five minutes at room temperature prior to adding the extrusion generated vesicles, after which the reaction was carried out for 20 minutes and then aggregation was determined on a plate reader. […]

[4] = Annexin vesicle binding (confocal, swelling generated phosphatidylserine vesicles); details: 2 μg ANXA1-GFP, 1 mmol/L CaCl2, five minutes
Protocol: Annexin Vesicle Binding. Giant unilamellar vesicles were generated using a previously described protocol (50) with some modifications. Briefly, for the confocal-based ANXA1 vesicle binding assay, 12 mm diameter cover glass circles were coated with 5% polyvinyl alcohol (Millipore, Burlington, Mass.) in water and left to dry overnight. Dried slides were then coated with 20 μl of 10 mg/mL phosphatidylserine (Avanti Polar Lipids, Alabaster, Ala.) in chloroform containing 0 1% DiR′; DiIC18(7) 1,1′-Dioctadecyl-3,3,3′,3′-Tetramethylindotricarbocyanine Iodide) (Fisher Scientific) and dried under vacuum. 1 mL of tris buffer (pH 6) was added to cover the coated cover glass circle in a 24-well plate, and giant unilaminar vesicles were formed by swelling at room temperature for 1 hour. Vesicles were detached from the cover glass by gently tapping the plate directly beneath the slide. ANXA1 tagged green fluorescent protein (ANXA1-GFP) was obtained by transfecting HEK-293 cells (ATCC, Manassas, Va.) with human ANXA1-GFP plasmid (OriGene, Rockville, Md., #RG201569). […] GFP laser settings were adjusted such that no GFP signal was detected in samples without ANXA1-GFP added.

Chain of dynamin-related protein 1 (DRP1) (O00429 whole entry): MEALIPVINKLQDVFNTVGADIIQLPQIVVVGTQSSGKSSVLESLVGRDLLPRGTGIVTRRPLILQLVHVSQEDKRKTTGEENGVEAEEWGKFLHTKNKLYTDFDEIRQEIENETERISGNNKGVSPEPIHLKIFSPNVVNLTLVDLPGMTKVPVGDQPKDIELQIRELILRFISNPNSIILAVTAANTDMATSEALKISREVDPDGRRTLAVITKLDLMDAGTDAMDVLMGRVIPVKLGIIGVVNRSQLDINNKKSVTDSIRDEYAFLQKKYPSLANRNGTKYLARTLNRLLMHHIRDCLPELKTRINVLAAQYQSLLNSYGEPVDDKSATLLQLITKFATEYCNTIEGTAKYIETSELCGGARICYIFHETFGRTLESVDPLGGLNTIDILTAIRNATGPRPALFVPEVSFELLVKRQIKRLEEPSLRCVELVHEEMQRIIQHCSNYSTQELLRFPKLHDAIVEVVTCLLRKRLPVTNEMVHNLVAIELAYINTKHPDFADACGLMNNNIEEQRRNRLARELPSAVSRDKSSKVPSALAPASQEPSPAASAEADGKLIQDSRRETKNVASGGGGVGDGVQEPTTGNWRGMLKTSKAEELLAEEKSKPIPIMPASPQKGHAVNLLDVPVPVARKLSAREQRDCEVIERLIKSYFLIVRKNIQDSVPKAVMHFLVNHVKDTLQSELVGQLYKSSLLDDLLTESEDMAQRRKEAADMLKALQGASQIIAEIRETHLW

Molecule: COc1cc(-n2c(S)nc3ccccc3c2=O)c(Cl)cc1Cl [mdivi-1]
- increased ANXA1 loading on EVs in OM (ANXA1 loading on EVs): suppressed
- SMC and VIC calcification [1]: suppressed
- intracellular calcium storage [1]: increased
- mitochondrial fragmentation [1]: reduced

- ANXA1 release from EVs [2]: increased
- ANXA1 release from EVs [3]: increased
- ANXA1-mediated vesicle aggregation (human ANXA1; 0.48 mmol/L EDTA, 1 μg human ANXA1 protein, 20 minutes): attenuated
Molecule: O=C(O)CN(CCN(CC(=O)O)CC(=O)O)CC(=O)O [EDTA, ethylenediaminetetraacetic acid]

B1: GFP-tagged ANXA1: green fluorescent protein tagged human ANXA1 immunopurified from transfected HEK-293 cells (protein)
chain: T1 sequence (P04083 1-346)
modifications: left off: large carriers
notes: green fluorescent protein tagged human ANXA1 immunopurified from transfected HEK-293 cells
- ANXA1 localization on tethered vesicles [4]: enriched ANXA1 at tethered vesicle membrane contact sites

B2: human ANXA1 protein: recombinant human ANXA1 (R&D Systems) (protein)
chain: AMVSEFLKQAWFIENEEQEYVQTVKSSKGGPGSAVSPYPTFNPSSDVAALHKAIMVKGVDEATIIDILTKRNNAQRQQIKAAYLQETGKPLDETLKKALTGHLEEVVLALLKTPAQFDADELRAAMKGLGTDEDTLIEILASRTNKEIRDINRVYREELKRDLAKDITSDTSGDFRNALLSLAKGDRSEDFGVNEDLADSDARALYEAGERRKGTDVNVFNTILTTRSYPQLRRVFQKYTKYSKHDMNKVLDLELKGDIEKCLTAIVKCATSKPAFFAEKLHQAMKGVGTRHKALIRIMVSRSEIDMNDIKAFYQKMYGISLCQAILDETKGDYEKILVALCGGN
- vesicle aggregation (turbidity) (human ANXA1; 0 up to 5 μg recombinant ANXA1, 1 mmol/L CaCl2, ~150 nm phosphatidylserine vesicles): time- and concentration-dependent vesicle aggregation
